This assay has as its target T1, Aromatase (Rattus norvegicus, UniProt P22443).
T1 construct: Infantile weibliche Ratten reagieren auf PMSG (Pregnant Mare's Serum Gonadotropin)-Behandlung mit einheitlich erhöhter Steroidsynthese; from tissue; host or cells: living infantile female rats pretreated with PMSG
T1 sequence (P22443 1-508): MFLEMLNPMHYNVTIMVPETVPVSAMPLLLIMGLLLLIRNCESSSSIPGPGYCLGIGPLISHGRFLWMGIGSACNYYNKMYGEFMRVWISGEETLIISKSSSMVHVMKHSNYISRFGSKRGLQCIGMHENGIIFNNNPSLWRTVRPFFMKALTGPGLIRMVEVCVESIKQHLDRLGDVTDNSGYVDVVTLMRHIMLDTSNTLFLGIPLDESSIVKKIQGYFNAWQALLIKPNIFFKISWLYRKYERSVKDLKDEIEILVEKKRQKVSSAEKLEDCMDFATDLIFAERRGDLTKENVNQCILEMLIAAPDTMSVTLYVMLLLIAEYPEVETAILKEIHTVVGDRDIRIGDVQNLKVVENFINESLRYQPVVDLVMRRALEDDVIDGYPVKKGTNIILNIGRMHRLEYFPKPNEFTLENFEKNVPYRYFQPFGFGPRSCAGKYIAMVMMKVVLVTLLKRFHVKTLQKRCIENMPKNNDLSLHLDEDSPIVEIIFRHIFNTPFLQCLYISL
The experiment in a line: PMSG test: effect on serum oestradiol concentration in PMSG-pretreated infantile female rats. Format: in vivo, Ratte. The note with it: for Östradiol-Konzentration: peripheral serum, PMSG-pretreated rat, 24 h after last PMSG, mean ± SD; for Serum-östradiolkonzentration: in comparison with A and B. As to the method: Infantile weibliche Ratten reagieren auf PMSG (Pregnant Mare's Serum Gonadotropin)-Behandlung mit einheitlich erhöhter Steroidsynthese. Die Aromataseaktivität kann durch die Beeinflussung der PMSG-stimulierten Östrogenbildung gemessen werden.
Im sogenannten PMSG-Test werden 21 tage alte weibliche Ratten alle 2 Tage insgesamt 7 mal mit je 100 I.U. PMSG subkutan vorbehandelt. 1 Stunde vor und 8 Stunden nach der letzten PMSG-Applikation(d₁₂) erhalten die Tiere die Testsubstanz in 0,1 ml Benzylbenzoat/Rizinusöl (1+9) durch subkutane Injektion. Die Kontrolltiere erhalten nur das Vehikel. 24 Stunden nach der letzten PMSG-Applikation werden die Tiere getötet. Im serum wird Östradiol radioimmunologisch geprüft. Für jede Gruppe von Tieren wird der Mittelwert der Östradiolkonzentration in nMol/l mit der Standardabweichung errechnet. Die Signifikanzen der Unterschiede zur Kontrollgruppe werden durch die Varianzanalyse geprüft. Zur Ermittlung der relativen Wirkungsstärke der zu testenden Substanz im Vergleich zu der Standardsubstanz wird die Regressions- und Kovarianzanalyse durchgeführt. Ferner wird die prozentuale Hemmung gegen die PMSG-Kontrolle berechnet.

Each structure is given as a SMILES string.

Turning to `C[C@]12CCC(=O)C(O)=C1CC[C@@H]1[C@@H]2CC[C@]2(C)C(=O)CC[C@@H]12` [A, 4-Hydroxy-4-androsten-3,17-dion, reference compound], the Östradiol-Konzentration (Dosis 0,1 mg/Tier 2 x s.c.) is reported as 3,98±1,12 nMol/l, the Östradiol-Konzentration (Dosis 0,3 mg/Tier 2 x s.c.) is given as 3,84±0,84 nMol/l and the Östradiol-Konzentration (Dosis 1,0 mg/Tier 2 x s.c.) was 1,94±0,62 nMol/l.

For the compound `CC(=O)OCC[C@H]1CC(=O)[C@@]2(C)CC[C@H]3[C@@H](CCC4=CC(=O)C=C(C)[C@@]43C)[C@H]12` [B, 15α-(Acetoxyethyl)-1-methyl-androsta-1,4-dien-3,17-dion, reference compound], the Östradiol-Konzentration is, setting by setting: (Dosis 0,1 mg/Tier 2 x s.c.) 2,11±0,39 nMol/l; (Dosis 0,3 mg/Tier 2 x s.c.) 0,62±0,13 nMol/l; (Dosis 1,0 mg/Tier 2 x s.c.) 0,54±0,07 nMol/l.

In the case of `CC(=O)O[C@H]([C@H]1CC(=O)[C@@]2(C)CC[C@H]3[C@@H](CCC4=CC(=O)C=C(C)[C@@]43C)[C@H]12)[C@H](C)OC(C)=O` [C, 15α-(1R,2S-Diacetoxypropyl)-1-methyl-androsta-1,4-dien-3,17-dion], the Serum-östradiolkonzentration result was “stärker gesenkt”. Moreover, for the setting “Dosis 0,1 mg/Tier 2 x s.c.”, the Östradiol-Konzentration is 1,30±0,37 nMol/l. Further, for the setting “Dosis 0,3 mg/Tier 2 x s.c.”, the Östradiol-Konzentration is 0,68±0,32 nMol/l. Moreover, the Östradiol-Konzentration (Dosis 1,0 mg/Tier 2 x s.c.) is listed as 0,24±0,10 nMol/l.

In the case of `CC[C@H](OC(C)=O)[C@H](OC(C)=O)[C@H]1CC(=O)[C@@]2(C)CC[C@H]3[C@@H](CCC4=CC(=O)C=C(C)[C@@]43C)[C@H]12` [D, 15α-(1R,2S-Diacetoxybutyl)-1-methyl-androsta-1,4-dien-3,17-dion], the Serum-östradiolkonzentration result is “stärker gesenkt”. In addition, for the setting “Dosis 0,1 mg/Tier 2 x s.c.”, the Östradiol-Konzentration is reported as 0,54±0,11 nMol/l. In addition, the Östradiol-Konzentration (Dosis 0,3 mg/Tier 2 x s.c.) was 0,88±0,15 nMol/l. Also, the Östradiol-Konzentration (Dosis 1,0 mg/Tier 2 x s.c.) is listed as 0,41±0,09 nMol/l.
